Experimental data reported in patent publication US9820967B2 (priority 2014, dated 2017).
“And” between values parts separate entries of the source, which are not always exact repeats. Equal entries are not always repeated. “Also recorded” adds a separate entry of the source. Where two headings read alike, the source gives them in different places.

Assays:
[1] = test system: E. coli mutant AG100A (ΔacrAB), lacking the pump; assay type: cell-based, Escherichia coli; details: transporter deficient
From the text: (§1) Upon entering the bacterial cell, H33342 becomes fluorescent once bound to the DNA minor groove.
(§2) To truly be considered an efflux pump inhibitor (EPI), the compound must increase the level of accumulation and decrease the level of extrusion of efflux pump substrates. The fluorescent DNA-binding dye Hoechst 33342 (H33342) a known substrate for RND pumps, is easily detected in the cell, can freely permeate the outer membrane, and can act as a reporter, all allowing for quantification of transport across living cells. Efflux-competent cells extrude H33342 and accumulate dye at a relatively slow rate, resulting in low levels of background fluorescence. Conversely, efflux-defective cells (e.g., presence of EPI) accumulate intracellular levels of H33342 at a higher rate, resulting in fluorescence retention. […]
(§3) For accumulation assays, in efflux-competent cells such as AG100, H33342 would be extruded resulting in low levels of background fluorescence, while the presence of a putative EPI would cause intracellular H33342 accumulation. […] Fluorescence values for wells containing media and compounds only were subtracted from those containing bacteria to control for any background fluorescence due to the presence of test compounds. […]

[2] = test system: fungi; details: Tsukamoto et al. (2001); cited from earlier work
[3] = test system: murine lymphocytic leukemia cells; details: cited from earlier work
[4] = test system: E. coli strains overexpressing efflux pumps (AG102, MG1655 ΔBC/pABM, MG1655 ΔBC/pXYM; AcrAB-TolC, MexAB-OprM, MexXY-OprM); assay type: cell-based, Escherichia coli
From the text: The checkerboard assay was used to determine whether 3,4-dibromopyrrole-2,5-dione potentiates the activity of two fluoroquinolones (ciprofloxacin (CIP) and levofloxacin (LEV)), an aminoglycoside (kanamycin (KAN)), a macrolide (erythromycin (ERY)), two β-lactams (oxacillin (OXA) and piperacillin (PIP)), tetracycline (TET), and chloramphenicol (CHL), known substrates for resistance nodulation cell division pump (RND) transporters, against test strains of multidrug resistant (MDR) E. coli. Interactions between 3,4-dibromopyrrole-2,5-dione and various antibiotics were classified based upon the fractional inhibitory concentration index (FICI), where a FIC of <0.5 is synergistic and indicative of the presence of an efflux pump inhibitor (EPI); 0.5-1 is indifferent; and >1 is antagonistic. […]
Bacterial susceptibility of extracts were tested in duplicate at 1 mg/mL and determined by rapid p-iodonitrotetrazolium chloride colorimetric assay in 96-well microtiter plates in a final volume of 200 μL as previously described (Kuete (2010), Antimicrob. Agents Chemother., 54, 1749-1752). […]
To assess the interaction between different classes of antibiotics and 3,4-dibromopyrrole-2,5-dione, standard checkerboard assays were performed in which the minimum inhibitory concentrations (MICs) of antibiotics were determined in the presence of different concentrations of 3,4-dibromopyrrole-2,5-dione. […]

[5] = target: wild-type E. coli AG100 expressing the AcrAB-TolC pump (Escherichia coli, UniProt P31224); assay type: cell-based
wild-type E. coli AG100 expressing the AcrAB-TolC pump, sequence (P31224 whole entry): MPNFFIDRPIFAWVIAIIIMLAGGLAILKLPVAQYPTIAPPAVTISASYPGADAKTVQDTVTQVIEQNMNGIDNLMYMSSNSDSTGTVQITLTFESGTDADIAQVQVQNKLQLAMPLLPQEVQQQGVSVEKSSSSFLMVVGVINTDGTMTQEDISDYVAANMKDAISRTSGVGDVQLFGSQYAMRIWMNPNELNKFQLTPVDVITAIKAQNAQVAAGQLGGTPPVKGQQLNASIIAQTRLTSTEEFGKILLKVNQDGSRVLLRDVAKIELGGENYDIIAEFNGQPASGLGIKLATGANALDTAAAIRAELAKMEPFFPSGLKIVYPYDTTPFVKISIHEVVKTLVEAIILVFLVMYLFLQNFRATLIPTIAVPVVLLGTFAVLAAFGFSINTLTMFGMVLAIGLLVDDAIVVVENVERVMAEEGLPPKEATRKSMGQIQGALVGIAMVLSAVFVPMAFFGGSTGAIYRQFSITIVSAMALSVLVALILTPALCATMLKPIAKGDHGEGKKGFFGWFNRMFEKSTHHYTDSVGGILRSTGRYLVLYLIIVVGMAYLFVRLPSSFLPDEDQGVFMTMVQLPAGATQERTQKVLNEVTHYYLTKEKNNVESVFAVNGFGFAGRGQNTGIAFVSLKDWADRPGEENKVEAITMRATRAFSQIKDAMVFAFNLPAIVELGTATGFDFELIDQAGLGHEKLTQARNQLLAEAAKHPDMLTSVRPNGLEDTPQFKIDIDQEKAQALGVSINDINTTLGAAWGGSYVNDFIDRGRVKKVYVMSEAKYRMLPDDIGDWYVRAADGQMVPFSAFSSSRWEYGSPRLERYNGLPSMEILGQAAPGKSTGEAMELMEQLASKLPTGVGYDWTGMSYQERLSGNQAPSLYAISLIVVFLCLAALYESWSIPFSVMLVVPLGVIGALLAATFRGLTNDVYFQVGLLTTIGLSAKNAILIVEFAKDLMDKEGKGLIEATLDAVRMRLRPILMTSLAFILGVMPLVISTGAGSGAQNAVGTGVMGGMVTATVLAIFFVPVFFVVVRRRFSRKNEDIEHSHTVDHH
wild-type E. coli AG100 expressing the AcrAB-TolC pump, sequence (P0AE06 25-397, further chain): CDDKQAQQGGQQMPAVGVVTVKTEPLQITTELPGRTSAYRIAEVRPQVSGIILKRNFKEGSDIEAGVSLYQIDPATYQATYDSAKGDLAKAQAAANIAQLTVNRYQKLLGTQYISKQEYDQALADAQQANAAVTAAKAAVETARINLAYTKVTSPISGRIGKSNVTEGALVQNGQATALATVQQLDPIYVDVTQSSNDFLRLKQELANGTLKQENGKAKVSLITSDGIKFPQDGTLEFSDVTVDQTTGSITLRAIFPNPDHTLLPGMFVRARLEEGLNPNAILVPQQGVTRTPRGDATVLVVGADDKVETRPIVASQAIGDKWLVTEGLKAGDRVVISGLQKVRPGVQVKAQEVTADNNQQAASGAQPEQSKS
wild-type E. coli AG100 expressing the AcrAB-TolC pump, sequence (P02930 23-493, further chain): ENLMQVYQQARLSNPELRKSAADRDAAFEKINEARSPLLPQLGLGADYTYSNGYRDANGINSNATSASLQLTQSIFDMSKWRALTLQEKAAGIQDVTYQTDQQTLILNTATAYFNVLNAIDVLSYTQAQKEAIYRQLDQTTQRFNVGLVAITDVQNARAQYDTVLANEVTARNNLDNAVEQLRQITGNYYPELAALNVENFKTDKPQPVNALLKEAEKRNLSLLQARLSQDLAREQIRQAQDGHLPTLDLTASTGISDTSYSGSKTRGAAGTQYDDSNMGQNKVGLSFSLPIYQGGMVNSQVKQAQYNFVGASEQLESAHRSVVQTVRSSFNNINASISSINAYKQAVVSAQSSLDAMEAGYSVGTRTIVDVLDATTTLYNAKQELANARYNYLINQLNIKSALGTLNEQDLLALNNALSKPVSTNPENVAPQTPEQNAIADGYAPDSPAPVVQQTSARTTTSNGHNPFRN
From the text: as §1, §2, §3

[6] = target: H33342 efflux in E. coli AG100 (AcrAB-TolC) (Escherichia coli, UniProt P31224); test: Hoechst 33342 efflux assay, AG100; assay type: cell-based
H33342 efflux in E. coli AG100 (AcrAB-TolC), sequence (P31224 whole entry): as the sequence (P31224 whole entry) above
H33342 efflux in E. coli AG100 (AcrAB-TolC), sequence (P0AE06 25-397, further chain): as the sequence (P0AE06 25-397, further chain) above
H33342 efflux in E. coli AG100 (AcrAB-TolC), sequence (P02930 23-493, further chain): as the sequence (P02930 23-493, further chain) above
From the text: To truly be considered an efflux pump inhibitor (EPI), the compound must increase the level of accumulation and decrease the level of extrusion of efflux pump substrates. The fluorescent DNA-binding dye Hoechst 33342 (H33342) a known substrate for RND pumps, is easily detected in the cell, can freely permeate the outer membrane, and can act as a reporter, all allowing for quantification of transport across living cells. Efflux-competent cells extrude H33342 and accumulate dye at a relatively slow rate, resulting in low levels of background fluorescence. Conversely, efflux-defective cells (e.g., presence of EPI) accumulate intracellular levels of H33342 at a higher rate, resulting in fluorescence retention. Wild-type E. coli K-12 strain, AG100, and AG100A, the ΔacrAB mutant, a generous gift from Dr. M. Viveiros (Universidad Nova de Lisboa, Portugal), were used in accumulation and efflux assays. […] All experiments were performed in duplicate. Heat-inactivated bacteria were used as a positive control to assess maximal dye accumulation.

[7] = test system: efflux pump (EPI functionality); test: EPI functionality assays of authentic standard; assay type: cell-based, Escherichia coli
From the text: Moreover, this “halogenome” appeared to be dominated by brominated metabolites, with only some metabolites (<10) that were additionally chlorinated. […] Relative concentrations of halogenated compounds from clade IV appeared different even within members of the same species, indicative of intraspecies chemical diversity and further subclustering among isolates of the same species (A757, A754, A746, and B149), a phenomenon previously described for P. luteoviolacea strains. […] The presence of 2,3,4-tribromopyrrole was also determined (retention time 20.1 min, major ion m/z 301.7639), which was present in A757, A754, and A746, but not in B149. […]
as §2

Compound	effect on H33342 fluorescence (accumulation) [1]	effect on H33342 fluorescence (accumulation) ([1]; listed as 3,4-Dibromopyrrole-2,5-dione)	antifungal activity [2]	cytotoxicity [3]	interaction by fractional inhibitory concentration index (FICI) ([4]; all antibiotics tested with the exception of piperacillin)	antibacterial activity of compound alone, concentration ([4]; all three E. coli strains overexpressing efflux pumps)	concentration equal to or more effective than PAβN (15.6 μg/mL) in causing H33342 accumulation [5]	intracellular H33342 fluorescence (accumulation) [5]	IC50 [6]	most dilute concentration with significant (p<0.05) H33342 efflux inhibition vs solvent controls [6]	inhibition of H33342 efflux vs control wells ([6]; 0.06-64 μg/mL, glucose, 37° C.)	EPI activity of authentic standard [7]
O=C1NC(=O)C(Br)=C1Br [3,4-dibromopyrrole-2,5-dione]	no effect	not	modest antifungal activity	cytotoxicity	synergistic (a FIC of <0.5 is synergistic and indicative of the presence of an efflux pump inhibitor (EPI))	> 100 µg/mL	≥ 1 µg/mL	dose-dependent increase; also recorded: increased	3.1 µM and 3 µM	0.06 µg/mL	near-complete inhibition	–
Brc1[nH]c(Br)c(Br)c1Br [2,3,4,5-tetrabromopyrrole]	–	–	–	–	–	–	–	–	–	–	–	not to be responsible for the EPI activity
